Some results are limits rather than exact numbers.

The target of one experiment is Flt1 (Homo sapiens (Human), UniProt P17948). In words: Eurofins IC50Profiler radiometric kinase assay, Flt1. Type of experiment: biochemical. The conditions noted are these: 9 semilog concentrations. An excerpt:
(§1) A proportion of the compounds of the present invention are subjected to kinase profile screening (KinaseProfiler™)) and enzymatic inhibitory activity (IC50Profiler™)) assay by entrusting Eurofins company (http://www.eurofins.com). Besides the kinases in the JAK family, the kinases that have been screened for their activity also include most Group 3F and Group 4 kinases (ITK, BLK, TBK1, VEGFRs, ERBBs, etc.), and blood system related kinases (Zhang J. et al. 2009, Nat. Rev. Cancer., 9: 28-39). The concentration of the test compound for kinase profile screening is 1 μM, and a gradient of 9 semilog concentration gradients are used to determine IC50. Detection is carried out according to standard procedure of Eurofins Company. Briefly, according to the requirements of different kinase reactions, 0.2 μL test compound (50 μM, dissolved in dimethyl sulfoxide (DMSO)) is added to reaction buffer containing specific kinase (the buffer system containing 20 mM MOPS, 1 mM EDTA, 0.01% Brij-35, 5% Glycerol, 0.1% β-mercaptoethanol, 1 mg/mL BSA, or 50 mM TRIS, 0.1 mM EGTA, 0.1 mM Na3VO4, 0.1% β-mercaptoethanol, 1 mg/mL BSA, based on the type of kinase used). Subsequently, a kinase specific substrate at a final concentration of 50 μM (specific substrate used for specific kinase), 10 mM Mg Acetate and isotope-labeled γ-^33P ATP (radio-activity of about 500 cpm/pmol) are sequentially added to a total volume of 10 μL for the reaction system. After incubation at room temperature for 40 min, the reaction is terminated by adding 3% phosphoric acid solution. The mixture is then transferred to a filter-type low temperature spray dryer (P30 filtermat), and washed by 75 mM phosphoric acid solution for 3 times and by methanol once. After drying, radio-activity is detected. For specific procedure, see the standard procedure provided by Eurofins Company: http://www.eurofins.com/media/9724077/kinaseprofiler_assay_protocol_guide_eurofins_v64.pdf).

The target of a further experiment is Flt4 (Homo sapiens (Human), UniProt P35916). In words: Eurofins IC50Profiler radiometric kinase assay, Flt4. The class given is biochemical. The note with it: 9 semilog concentrations.
Excerpt: as §1

In the next experiment the test system is HUVEC cells. In words: Cell growth activity assay (MTS), HUVEC cell model. The note with it: Homo sapiens, 72 h; for activity at 10 µM: read-out: HUVEC % growth rate @10 μM. Type of experiment: cell-based. The text has this:
MTS assay is a routine method for cell toxicity detection. The basic principle is based on the capacity of dehydrogenase in the mitochondria of living cells to reduce a novel yellow […] MTS to formazan, so that the amount of living cells is proportional to the amount of formazan product by detecting the absorbance at 490 nm (OD), thereby speculating the amount of living cells according to the OD value, and understanding the capacity of the test compound to inhibit the growth of cells or to kill the cells.
HeLa cell is a human cervical cancer cell line, and belongs to epithelial tumor cell line; HUVEC is a human umbilical vein endothelial cell, and belongs to primary endothelial cell; both types of cells express all subtypes except for JAK3.
The change of JAK kinase activity has no significant influence on other cell types except for the immune cells, and both cell models mentioned above are mainly used to evaluate whether there are any other kinase targets besides JAK kinases or there are nonselective cell toxicities.
In this experiment, a cultured cell model is incubated with the test compounds at different concentrations for a specific duration. The effect of the treatment by the test compound on the growth of cells is detected using MTS assay.
MTS is performed according to routine procedure in a 96-well plate.
The model cells are inoculated into each well of the 96-well plate at an appropriate concentration (about 5000 cells/well). After 24 h, the test compounds are added at different concentration gradients (the highest final concentration is 40 μM). A solvent control (DMSO) and a negative control are also performed at the same time. Each experiment is repeated for 3 times. The cells are detected after cultured for another 72 h.
After all culture medium is aspirated out of the well, 100 μL fresh medium and 20 μL pre-formulated mixture of MTS and PMS (in a ratio of 20:1) are added to each well. After incubation at 37° C. for 2 h, it is then detected by a microplate reader (490 nm).
The cell growth inhibitory rate and GI50 of the test compound are calculated as above.
Based on the above method, cytological evaluation is performed to the compounds described herein (for the detection of CTLL-2 cell, the concentration of the test compound is 300 nM; […]).

The next experiment has as its target JAK3 (Homo sapiens (Human), UniProt P52333). In words: Eurofins IC50Profiler radiometric kinase assay, JAK3. The class given is biochemical. The conditions noted are these: 9 semilog concentrations.
Excerpt: as §1

The target in another experiment is BLK (Homo sapiens, UniProt P51451). In words: Eurofins IC50Profiler radiometric kinase assay, BLK. Type of experiment: biochemical. The note with it: 9 semilog concentrations.
Excerpt: as §1

The target of another experiment is ITK (Homo sapiens (Human), UniProt Q08881). The experiment is described as follows: Eurofins IC50Profiler radiometric kinase assay, ITK. The class given is biochemical. The conditions noted are these: 9 semilog concentrations.
Excerpt: as §1

Another experiment relates to HeLa cells. In words: Cell growth activity assay (MTS), HeLa cell model. The arrangement: activity: dose or concentration left out as unconfirmed. The class given is cell-based, human. The conditions noted are these: Homo sapiens, HeLa, 72 h; for activity: read-out: HeLa % growth rate. The method in brief:
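HeLa human cervical cancer cells were plated at about 5000 cells/well in a 96-well plate. After 24 h, test compounds were added in concentration gradients (highest final concentration 40 μM), alongside a DMSO solvent control and a negative control. After another 72 h, the medium was replaced with 100 μL fresh medium plus 20 μL MTS/PMS (20:1). Plates were incubated 2 h at 37° C. and absorbance was read at 490 nm to give growth inhibition and GI50.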

Chain of Flt1 (P17948 27-1338, species assumed): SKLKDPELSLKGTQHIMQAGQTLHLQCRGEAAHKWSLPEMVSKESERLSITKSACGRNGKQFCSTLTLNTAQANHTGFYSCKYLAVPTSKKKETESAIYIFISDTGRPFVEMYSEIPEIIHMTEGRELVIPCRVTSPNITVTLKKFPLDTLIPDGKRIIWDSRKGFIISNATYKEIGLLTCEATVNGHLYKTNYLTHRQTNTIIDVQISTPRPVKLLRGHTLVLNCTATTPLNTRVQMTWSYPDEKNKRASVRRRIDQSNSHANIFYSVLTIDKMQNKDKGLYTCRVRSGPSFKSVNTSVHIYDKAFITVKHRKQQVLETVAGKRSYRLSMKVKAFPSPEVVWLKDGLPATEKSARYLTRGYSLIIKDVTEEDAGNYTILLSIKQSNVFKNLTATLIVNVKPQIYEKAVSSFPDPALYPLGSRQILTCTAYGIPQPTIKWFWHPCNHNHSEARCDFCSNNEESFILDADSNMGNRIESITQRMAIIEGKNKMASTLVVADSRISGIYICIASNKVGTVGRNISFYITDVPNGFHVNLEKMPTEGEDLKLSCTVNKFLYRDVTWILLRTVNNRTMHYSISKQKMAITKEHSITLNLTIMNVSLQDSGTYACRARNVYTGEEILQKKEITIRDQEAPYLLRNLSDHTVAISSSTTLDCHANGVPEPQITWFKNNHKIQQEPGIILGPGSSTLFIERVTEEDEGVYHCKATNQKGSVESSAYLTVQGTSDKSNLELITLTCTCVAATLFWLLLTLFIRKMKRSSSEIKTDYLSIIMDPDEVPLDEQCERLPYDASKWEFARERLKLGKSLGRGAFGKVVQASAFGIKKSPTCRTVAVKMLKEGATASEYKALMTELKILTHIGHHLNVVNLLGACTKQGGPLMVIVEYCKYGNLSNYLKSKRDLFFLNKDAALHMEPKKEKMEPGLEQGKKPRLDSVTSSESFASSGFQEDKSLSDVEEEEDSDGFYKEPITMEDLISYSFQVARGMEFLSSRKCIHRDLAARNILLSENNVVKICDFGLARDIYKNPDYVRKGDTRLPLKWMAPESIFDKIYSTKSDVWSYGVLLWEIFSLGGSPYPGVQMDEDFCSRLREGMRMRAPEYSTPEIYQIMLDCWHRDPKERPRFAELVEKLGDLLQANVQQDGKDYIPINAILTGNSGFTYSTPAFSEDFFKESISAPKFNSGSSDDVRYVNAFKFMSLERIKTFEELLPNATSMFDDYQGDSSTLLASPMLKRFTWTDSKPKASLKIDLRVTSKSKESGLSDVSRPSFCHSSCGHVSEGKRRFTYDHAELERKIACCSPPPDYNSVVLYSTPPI
Chain of Flt4 (P35916 25-1363, species assumed): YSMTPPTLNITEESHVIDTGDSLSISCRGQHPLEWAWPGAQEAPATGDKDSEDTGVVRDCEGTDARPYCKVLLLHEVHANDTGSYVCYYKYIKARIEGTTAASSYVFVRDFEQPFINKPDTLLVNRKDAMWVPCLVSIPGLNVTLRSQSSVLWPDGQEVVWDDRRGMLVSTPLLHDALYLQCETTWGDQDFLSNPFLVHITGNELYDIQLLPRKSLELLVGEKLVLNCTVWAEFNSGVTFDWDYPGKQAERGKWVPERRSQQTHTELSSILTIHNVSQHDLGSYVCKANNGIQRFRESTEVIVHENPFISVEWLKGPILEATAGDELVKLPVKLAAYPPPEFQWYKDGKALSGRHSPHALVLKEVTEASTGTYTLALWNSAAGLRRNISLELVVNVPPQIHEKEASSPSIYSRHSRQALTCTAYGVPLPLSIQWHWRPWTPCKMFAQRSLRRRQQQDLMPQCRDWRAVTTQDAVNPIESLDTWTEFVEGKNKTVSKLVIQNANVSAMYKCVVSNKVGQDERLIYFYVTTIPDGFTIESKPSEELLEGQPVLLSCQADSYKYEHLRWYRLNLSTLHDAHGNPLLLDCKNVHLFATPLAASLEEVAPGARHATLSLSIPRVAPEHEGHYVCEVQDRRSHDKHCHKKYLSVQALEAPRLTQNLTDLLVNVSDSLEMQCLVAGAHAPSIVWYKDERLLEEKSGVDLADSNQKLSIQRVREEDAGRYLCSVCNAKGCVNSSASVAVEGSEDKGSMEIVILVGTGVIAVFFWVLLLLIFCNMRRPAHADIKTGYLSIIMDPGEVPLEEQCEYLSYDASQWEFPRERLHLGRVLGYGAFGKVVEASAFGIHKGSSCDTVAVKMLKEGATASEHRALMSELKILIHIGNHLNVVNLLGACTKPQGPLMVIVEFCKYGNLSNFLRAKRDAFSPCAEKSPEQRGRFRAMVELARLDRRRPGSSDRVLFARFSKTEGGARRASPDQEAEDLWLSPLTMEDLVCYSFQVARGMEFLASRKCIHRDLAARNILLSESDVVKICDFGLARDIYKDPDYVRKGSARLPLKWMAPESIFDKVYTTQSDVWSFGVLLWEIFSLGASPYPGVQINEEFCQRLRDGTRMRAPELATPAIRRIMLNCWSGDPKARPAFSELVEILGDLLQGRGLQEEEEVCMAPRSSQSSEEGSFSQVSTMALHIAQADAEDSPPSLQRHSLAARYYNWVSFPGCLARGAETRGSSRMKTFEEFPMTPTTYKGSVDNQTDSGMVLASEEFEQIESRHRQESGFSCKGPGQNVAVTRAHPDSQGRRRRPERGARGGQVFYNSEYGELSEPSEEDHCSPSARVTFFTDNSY
Chain of ITK (Q08881 whole entry, species assumed): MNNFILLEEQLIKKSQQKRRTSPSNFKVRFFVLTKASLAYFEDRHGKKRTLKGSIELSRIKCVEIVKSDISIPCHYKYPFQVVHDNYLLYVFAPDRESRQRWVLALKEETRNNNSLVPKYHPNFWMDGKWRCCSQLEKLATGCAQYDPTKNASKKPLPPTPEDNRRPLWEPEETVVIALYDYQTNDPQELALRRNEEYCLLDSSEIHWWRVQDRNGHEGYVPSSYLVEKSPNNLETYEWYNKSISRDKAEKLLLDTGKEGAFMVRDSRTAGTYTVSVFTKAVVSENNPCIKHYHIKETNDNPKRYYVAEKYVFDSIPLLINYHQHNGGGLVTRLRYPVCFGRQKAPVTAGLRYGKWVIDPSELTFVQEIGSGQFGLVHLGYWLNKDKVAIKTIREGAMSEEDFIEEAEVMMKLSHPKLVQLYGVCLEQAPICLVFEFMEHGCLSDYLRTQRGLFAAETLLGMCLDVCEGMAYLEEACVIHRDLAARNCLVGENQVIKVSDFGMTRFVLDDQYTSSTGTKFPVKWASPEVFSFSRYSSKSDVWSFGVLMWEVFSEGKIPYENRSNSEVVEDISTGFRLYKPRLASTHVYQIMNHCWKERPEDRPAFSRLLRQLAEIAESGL
Chain of JAK3 (P52333 whole entry, species assumed): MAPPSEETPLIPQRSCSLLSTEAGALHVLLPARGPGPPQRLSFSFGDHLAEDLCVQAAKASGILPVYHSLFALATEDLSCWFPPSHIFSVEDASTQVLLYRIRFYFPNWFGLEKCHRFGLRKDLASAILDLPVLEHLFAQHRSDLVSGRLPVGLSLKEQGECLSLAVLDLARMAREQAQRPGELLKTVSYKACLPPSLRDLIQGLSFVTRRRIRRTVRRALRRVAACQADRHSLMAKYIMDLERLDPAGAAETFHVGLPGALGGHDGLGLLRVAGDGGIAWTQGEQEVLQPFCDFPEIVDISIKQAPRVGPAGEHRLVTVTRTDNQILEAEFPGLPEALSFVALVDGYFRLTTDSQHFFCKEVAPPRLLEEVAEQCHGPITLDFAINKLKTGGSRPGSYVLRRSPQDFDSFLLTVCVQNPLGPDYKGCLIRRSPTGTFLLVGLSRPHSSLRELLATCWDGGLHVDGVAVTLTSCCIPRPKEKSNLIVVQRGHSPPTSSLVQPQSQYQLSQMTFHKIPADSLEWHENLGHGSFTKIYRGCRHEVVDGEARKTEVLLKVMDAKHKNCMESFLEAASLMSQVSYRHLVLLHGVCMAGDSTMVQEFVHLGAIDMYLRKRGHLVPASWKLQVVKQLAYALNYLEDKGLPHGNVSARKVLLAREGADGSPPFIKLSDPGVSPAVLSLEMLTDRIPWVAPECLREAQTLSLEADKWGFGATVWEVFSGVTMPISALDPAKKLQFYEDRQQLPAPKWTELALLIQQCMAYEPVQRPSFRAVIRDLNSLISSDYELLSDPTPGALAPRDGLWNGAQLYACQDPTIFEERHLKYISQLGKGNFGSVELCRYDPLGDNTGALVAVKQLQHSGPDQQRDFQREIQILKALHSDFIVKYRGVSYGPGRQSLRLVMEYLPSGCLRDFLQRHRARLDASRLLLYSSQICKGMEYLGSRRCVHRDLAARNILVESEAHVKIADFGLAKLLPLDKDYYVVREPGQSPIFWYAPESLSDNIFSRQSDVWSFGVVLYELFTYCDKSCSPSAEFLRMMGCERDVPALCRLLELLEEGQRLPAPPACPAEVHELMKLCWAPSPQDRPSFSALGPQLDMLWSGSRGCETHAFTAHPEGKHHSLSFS
Chain of BLK (P51451 2-505 limits assumed): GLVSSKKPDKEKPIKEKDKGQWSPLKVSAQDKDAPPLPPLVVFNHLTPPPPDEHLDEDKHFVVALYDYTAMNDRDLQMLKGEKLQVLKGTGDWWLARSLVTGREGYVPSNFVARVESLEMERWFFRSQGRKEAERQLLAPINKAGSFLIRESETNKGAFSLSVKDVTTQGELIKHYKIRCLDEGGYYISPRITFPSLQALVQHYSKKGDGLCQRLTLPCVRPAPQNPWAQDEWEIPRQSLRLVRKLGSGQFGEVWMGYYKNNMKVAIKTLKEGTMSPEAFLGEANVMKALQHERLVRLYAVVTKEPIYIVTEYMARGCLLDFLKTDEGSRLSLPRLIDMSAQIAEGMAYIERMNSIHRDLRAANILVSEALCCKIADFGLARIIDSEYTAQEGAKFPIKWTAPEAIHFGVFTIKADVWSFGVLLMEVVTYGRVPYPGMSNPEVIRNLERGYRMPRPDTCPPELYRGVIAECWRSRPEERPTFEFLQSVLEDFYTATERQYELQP

Regarding `C=CC(=O)N(C)c1cc(Nc2ncc(Cl)c(NCCCNC(=O)c3ccc(C#N)cc3)n2)ccc1F` [Example 7, N-(3-(5-chloro-2-(4-fluoro-3-(N-methylacrylamido)phenylamino)pyrimidinyl-4-amino)propyl)-4-cyano-benzamide], the 50% inhibitory concentration (IC50) (commonly the point on the concentration scale where inhibition reaches its midpoint) is 698 nM on Flt1; 107 nM against Flt4; 11 nM at JAK3; 286 nM at BLK; 319 nM on ITK. Besides, the activity at 10 µM in the experiment on HUVEC cells was 94%. For the same molecule, the GI50 in the experiment with HUVEC cells and in the experiment on HeLa cells was above 40000 nM each time. In the experiment on HeLa cells, the activity came to 98%.
Consider `C=CC(=O)N(C)c1cc(Nc2ncc(Cl)c(NCCCNC(=O)c3ccc(C(F)(F)F)cc3)n2)ccc1F` [Example 22, N-(3-(5-chloro-2-(4-fluoro-3-(N-methylacrylamido)phenylamino)pyrimidinyl-4-amino)propyl)-4-trifluoromethylbenzamide], for which the IC50 was above 10000 nM against Flt1; above 10000 nM at Flt4; 21 nM against JAK3; 1660 nM against BLK; above 10000 nM against ITK. For the same molecule, the activity at 10 µM in the experiment on HUVEC cells is 116%. Moreover, the GI50 in the experiment on HUVEC cells and in the experiment with HeLa cells was above 40000 nM throughout. Also, the activity in the experiment on HeLa cells was 78%.
Regarding `C=CC(=O)N(C)c1cc(Nc2ncc(Cl)c(NCCCNC(=O)c3ccc(F)cc3)n2)ccc1F` [Example 23, N-(3-(5-chloro-2-(4-fluoro-3-(N-methylacrylamido)phenylamino)pyrimidinyl-4-amino)propyl)-4-fluorobenzamide], the IC50 is 1230 nM on Flt1; 42 nM on Flt4; 11 nM against JAK3; 855 nM at BLK; above 10000 nM on ITK. Besides, the activity at 10 µM in the experiment on HUVEC cells was 112%. In addition, the 50% growth inhibitory concentration (GI50) – broadly, the concentration that inhibits growth by half – in the experiment with HUVEC cells was above 40000 nM. For the same molecule, the activity with HeLa cells was 96%.
